Test results from patent US4201784A, “Substituted 2-[2'-(5"-nitrofuryl-2")vinyl-and 4'-(5"-nitrofuryl-2"-1,3-butadieryl]quinoline-4-carboxylic acid amides and salts thereof” (Institut Organicheskogo Sinteza Akademii Nauk Latviiskoi SSR, priority 1977, dated 1980).
Like-named read-outs stand apart in the source and are kept apart here.

What was measured:
adenocarcinoma 755 = assay: Antitumor activity, adenocarcinoma 755; format: in vivo, mice
Description: (§1) Apart from the tests on Ehrlich ascitic tumor, giniquine was studied on twelve more inoculated tumors. Seven tumors (melanoma B16, sarcoma AK, large intestine carcinoma acatol-1, sarcoma 180, adenocarcinoma 755, Lewis lung carcinoma and sarcoma 37) were inoculated subcutaneously with 50 mg of tumoral cells per mouse. Four tumors (lymphatic leukemies L 5178, L 5178Y, L 1210 and P-388) were inoculated intraperitoneally with 10^6 cells per mouse. One tumor (La, hemocytoblastosis) was inoculated intraperitoneally by injecting 50 mg of cell suspension of spleen and liver of mice suffering La hemocytoblastosis, per mouse. Giniquine was injected intraperitoneally five times for seven days: 1,2,3,4,7 days or 3,4,5,6,7 days after the implantation of tumor. The rate of deceleration of the tumor growth was established 14 days after the ultimate injection of giniquine; life of test animals was recorded for 60 days.

Lewis lung carcinoma = assay: Antitumor / antimetastatic activity, Lewis lung carcinoma; format: in vivo, mice
Description: as §1

[1] = system: lymphatic leukemia L 5178Y; assay: Antitumor activity, lymphatic leukemia L 5178Y; format: in vivo, mice
Description: as §1

lymphatic leukemia P-388 = assay: Antitumor activity, lymphatic leukemia P-388; format: in vivo, mice
Description: as §1

[2] = system: cells of Ehrlich ascitic tumor; assay: In vitro incorporation of labeled precursors into DNA, RNA and protein of Ehrlich ascitic tumor cells; format: cell-based, mice; conditions: for activity at 100 µM: 1 h, 1.10^-4 M
Description: The effect of giniquine on biosynthesis of molecules in the in vitro tests was studied with suspensions of cells of Ehrlich ascitic tumor. The tests were conducted with common white mice of a mass of 18-20 g. Ascites was taken 7-8 days after the inoculation, dissolved with a cool Eagle medium (pH 7.4) containing 0.1% of heparin, and the cells were precipitated by centrifuging at 600 g. The cells were washed twice with the same medium, and a 10% suspension of the cells in the Eagle medium was prepared.
The effect of giniquine on biosynthesis of DNA, RNA and protein in the cells of Ehrlich ascitic tumor was assessed on the basis of incorporation of cells of specific labeled precursors into acid-insoluble fraction: 2-^14 C-thymidine, 2-^14 C-uridine and 2-^14 C-leucine, respectively.
The incubating medium contained, in a total volume of 2 ml, 100 mg of tumoral cells in the form of suspension, Eagle medium (pH 7.4), giniquine in a concentration of 1.10^-4 m and labeled precursors of nucleic acids and protein with a radioactivity corresponding to 0.1 μc. Control samples contained a corresponding volume of distilled water to replace the preparation solution.
The incubation was conducted in Warburg apparatus vessels at 37° C. for one hour. After the incubation, tumoral cells were fixed by adding cool 10% trichloracetic acid to the incubating medium (1:1). Concurrently a control sample without incubation was prepared, to which, before adding the cell suspension, was added 10% trichloracetic acid in the same ratio.
The precipitated cells were extracted for 20 minutes at 0° C. with 5% trichloroacetic acid. The samples were then filtered through millipore filters (HUFS, pore diameter 0.4 μ). The precipitate on the filter was washed twice with 5 ml of cool 5% trichloracetic acid and once with 5 ml of toluene. The filters were dried in the air and transferred into quartz flasks containing 10 ml of toluene scintillator. The radioactivity was determined by means of a liquid scintillation counter. The results were expressed in percent of the control.
It will be apparent from the Table that under the action of giniquine in a concentration of 1.10^-4 M the incorporation of labeled precursors of DNA, RNA and protein in acid-insoluble fraction of cells of Ehrlich ascitic tumor is disturbed compared to the control. […] The results of in vitro experiments study of the effect of 0.3 and 0.1% solutions of giniquine on the incorporation of 2-^14 C-thymidine in the acid-insoluble fraction (DNA) of Erlich cells are presented in Table 6.

Kidneys = assay: In vivo biosynthesis of DNA, RNA and protein in kidneys; design: species or system mice; conditions: 24 hours, intraperitoneal 28 mg/kg
Description: The influence of giniquine on biosynthetic processes in the in vivo tests was studied on common white mice of a mass of 25-35 g with Ehrlich ascitic tumor.
The mice were divided into two groups. The animals in the first group were given a single injection of the preparation in differing doses, and the animals in the second group were treated with distilled water. Three series of experiments were conducted. In the first series of tests (16 mice) the preparation was injected in a dose of 100 mg/kg ([…] dose), and the animals were decapitated one hour after the injection; in the second test series (16 mice) the animals were slaughtered 3 hours after the injection with other conditions being the same. In the third test series (35 mice) the influence of giniquine on plastic metabolism in tumor cells and normal tissues was studied 24 hours after the injection of a 0.33% solution of the preparation in a dose of 28 mg/kg (therapeutical dose).
Labeled precursors of nucleic acids and protein were injected intraperitoneally one hour before the slaughter of the animals (50 μc/100 g). Ascitic fluid, as well as liver and spleen, mucous membrane of small intestine, brain, kidneys and lungs were taken for analysis. 10% suspension was prepared from tumor cells, and 10% homogenates were prepared from tissues in a physiological solution.
Tumor cells and tissue homogenates for precipitation of nucleic acids were treated with 57% perchloric acid (10:1). […] Radioactivity of DNA and RNA fractions was measured by means of a liquid scintillation counter. The quantity of DNA and RNA was determined by spectrophotometry: the quantity of DNA was determined with diphenylamine, and RNA- with orcin.
To prepare protein hydrolysate, the suspension of tumoral cells and homogenates of normal tissues were treated with cool 10% trichloracetic acid (1:4), with subsequent centrifuging at 2000 g for ten minutes. […] The radioactivity was measured by means of a liquid scintillation counter. Protein was quantitatively determined by spectrophotometry using a microbiuret reaction.

[3] = BDF1 female mice, intraperitoneal, days 1,2,3,4,7, optim. daily dose 6.0 mg/kg
[4] = BDF1 female mice, intraperitoneal, days 1,2,3,4,7, optimum daily dose 6.0 mg/kg

In the case of `CCN(CC)CCCC(C)NC(=O)c1cc(C=Cc2ccc([N+](=O)[O-])o2)nc2ccccc12` (stereo not drawn) [giniquine, 2-[2'-(5"-nitrofuryl-2")vinyl]quinoline-4-carboxylic acid (α-methyl-δ-diethylaminobutyl)amide triphosphate], the “Deceleration of tumor growth” value (adenocarcinoma 755; [3]) is reported as 28%, the “Max. prolongation of life” value (adenocarcinoma 755; [3]) is reported as 25% and the “antitumor effect (in words)” value (adenocarcinoma 755; adenocarcinoma 755) is reported as “slight antitumor effect”. The Max. life prolong. (Lewis lung carcinoma; [4]) was 15%, the “antimetastatic activity / sensitivity (in words)” value (Lewis lung carcinoma; Lewis lung carcinoma) was “practically insensitive” and the Max. life prolong. [1, 4] was 5%. The “sensitivity (in words)” value ([1]; L-5178Y) was “practically insensitive”, the “sensitivity (in words)” value (lymphatic leukemia P-388; P-388) was “practically insensitive” and the Max. life prolong. (lymphatic leukemia P-388; printed B-388, BDF1 female mice, intraperitoneal, days 1,2,3,4,7, optimum daily dose 10.0 mg/kg) was 12%. For the same molecule, the “Incorporation of 2-^14 C-thymidine in DNA in % of control” value ([2]; 0.1% solution) was 2.4 % of control, the “suppression of biosynthesis of DNA in tumor cells (in words)” value ([2]; 0.3% solution) was “practically complete suppression” and the activity at 100 µM ([2]; Mus musculus, Ehrlich, read-out: Incorporation of 2-^14 C-leucine in percent of control) was 86%. For the same molecule, the activity at 100 µM ([2]; Mus musculus, Ehrlich, read-out: Incorporation of 2-^14 C-thymidine in percent of control) was 61%, the activity at 100 µM ([2]; Mus musculus, Ehrlich, read-out: Incorporation of 2-^14 C-uridine in percent of control) was 52% and the activity at 0.1 % ([2]; Mus musculus, Ehrlich, 0.1% solution, read-out: Incorporation of 2-^14 C-thymidine in DNA in % of control) was 2.4%. For the same molecule, the activity at 0.3 % ([2]; Mus musculus, Ehrlich, 0.3% solution, read-out: Incorporation of 2-^14 C-thymidine in DNA in % of control) was 0.7%, the “incorporation of labeled precursors in DNA, RNA and protein (in words)” value ([2]; in vitro) was “decelerates the incorporation of labeled precursors in DNA, RNA and protein” and the “Incorporation of specific precursors, DNA” value (Kidneys) was 178.0 % of control. For the same molecule, the “Incorporation of specific precursors, Protein” value (Kidneys) was 105.0 % of control and the “Incorporation of specific precursors, RNA” value (Kidneys) was 148.0 % of control.
